Measurements from ChEMBL document CHEMBL1201862, “PubChem BioAssay data set” (2004).
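Dose response: 5 concentrations. Exposure: 48 h. Format: 96-well plates. Endpoint: linear interpolation; highest concentration if not reached. GI50 = concentration required for 50% inhibition of growth.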 The source made the active and inactive calls. Cut-off read from the data, not from the text of the source: active = GI50 up to about 1.1 µM and inactive = higher.

Tests used:
Experiment in all cases: NCI anticancer screen, dose series, 48 h
Hs-578T = test system: Hs-578T
HCT-15 = test system: HCT-15
EKVX = test system: EKVX
PC-3 = test system: PC-3
NCI-H460 = test system: NCI-H460
OVCAR-5 = test system: OVCAR-5
DU-145 = test system: DU-145
HOP-62 = test system: HOP-62
SN12C = test system: SN12C
SW-620 = test system: SW-620
786-0 = test system: 786-0
HT-29 = test system: HT-29
OVCAR-3 = test system: OVCAR-3
MDA-N = test system: MDA-N
Malme-3M = test system: Malme-3M
MOLT-4 = test system: MOLT-4
U-251 = test system: U-251
HL-60 = test system: HL-60

Row | Compound | GI50 (Hs-578T) | GI50 (HCT-15) [µM] | GI50 (EKVX) | GI50 (PC-3) | GI50 (NCI-H460) | GI50 (OVCAR-5) | GI50 (DU-145) | GI50 (HOP-62) | GI50 (SN12C) | GI50 (SW-620) | GI50 (786-0) | GI50 (HT-29) | GI50 (OVCAR-3) | GI50 (MDA-N) | GI50 (Malme-3M) | GI50 (MOLT-4) | GI50 (U-251) | GI50 (HL-60)
1 | O=C(N/N=C/c1ccc([N+](=O)[O-])cc1)Nc1ccc(Br)cc1 | > 100 µM (inactive) | > 100 | 99.1 µM (inactive) | > 100 µM (inactive) | > 100 µM (inactive) | > 100 µM (inactive) | 47.9 µM (inactive) | 32.9 µM (inactive) | 60 µM (inactive) | 52 µM (inactive) | 84.7 µM (inactive) | 97.1 µM (inactive) | 32.2 µM (inactive) | 44.6 µM (inactive) | > 100 µM (inactive) | 36.4 µM (inactive) | 69.3 µM (inactive) | 40.5 µM (inactive)
2 | CCN(CC)c1ccc2cc(-c3nnc(-c4ccccc4)[nH]3)c(=O)oc2c1 | 39.9 µM (inactive) | > 100 | 22.8 µM (inactive) | 14.9 µM (inactive) | 82 µM (inactive) | 28.2 µM (inactive) | 14.8 µM (inactive) | 7.28 µM (inactive) |  | 33.7 µM (inactive) | 14.3 µM (inactive) | 33 µM (inactive) | 40.5 µM (inactive) | > 100 µM (inactive) | 83 µM (inactive) | > 100 µM (inactive) | 15 µM (inactive) | > 100 µM (inactive)
3 | CC(=O)OCC1OC(N2C(=O)NC(=O)C3C=C4CCCCC4=CC32)CC1OC(C)=O (stereo unspecified) | > 100 µM (inactive) | > 100 | > 100 µM (inactive) | > 100 µM (inactive) | > 100 µM (inactive) | > 100 µM (inactive) | > 100 µM (inactive) | > 100 µM (inactive) | > 100 µM (inactive) | > 100 µM (inactive) | > 100 µM (inactive) | > 100 µM (inactive) | > 100 µM (inactive) | > 100 µM (inactive) | > 100 µM (inactive) | > 100 µM (inactive) | > 100 µM (inactive) | 72.8 µM (inactive)
4 | CCOc1ccc2ccc3cccnc3c2n1 | > 100 µM (inactive) | 54.3 | 36.5 µM (inactive) | 34.2 µM (inactive) | 36.3 µM (inactive) | 55.6 µM (inactive) | > 100 µM (inactive) | 18.5 µM (inactive) | > 100 µM (inactive) | 62.7 µM (inactive) | 66.2 µM (inactive) | 34.1 µM (inactive) | 21.9 µM (inactive) | > 100 µM (inactive) | 97.1 µM (inactive) |  | 48.4 µM (inactive) | 22.3 µM (inactive)
5 | N#CC1=C(N)OC2=C(CSc3ccccc32)C1c1ccc(Br)cc1 (stereo unspecified) | 28.1 µM (inactive) | 4.7 | 2.81 µM (inactive) | 4.42 µM (inactive) | 12.1 µM (inactive) | 11.6 µM (inactive) | 20 µM (inactive) | 14.1 µM (inactive) | 6.19 µM (inactive) | 5.22 µM (inactive) | 7.83 µM (inactive) | 4.59 µM (inactive) | 5.57 µM (inactive) | 3.32 µM (inactive) | 13.4 µM (inactive) | 2.84 µM (inactive) | 4.65 µM (inactive) | 2.59 µM (inactive)
6 | O=[N+]([O-])c1c2nc3n(c2cc2c1nc1n2CCC1)CCC3 | > 100 µM (inactive) | > 100 | > 100 µM (inactive) | > 100 µM (inactive) | > 100 µM (inactive) | > 100 µM (inactive) | > 100 µM (inactive) | > 100 µM (inactive) | > 100 µM (inactive) | > 100 µM (inactive) | > 100 µM (inactive) | > 100 µM (inactive) | > 100 µM (inactive) | > 100 µM (inactive) | 93.1 µM (inactive) | > 100 µM (inactive) | > 100 µM (inactive) | > 100 µM (inactive)
7 | C[N+]12CCCCC1C(COc1cccc3cccnc13)CCC2 (stereo unspecified) | > 100 µM (inactive) | > 100 | > 100 µM (inactive) | > 100 µM (inactive) | 58.6 µM (inactive) | > 100 µM (inactive) | > 100 µM (inactive) | 72.9 µM (inactive) | > 100 µM (inactive) | > 100 µM (inactive) | > 100 µM (inactive) | 53.1 µM (inactive) | 26.6 µM (inactive) | 93.5 µM (inactive) | > 100 µM (inactive) | > 100 µM (inactive) | > 100 µM (inactive) | > 100 µM (inactive)
8 | COC(=O)c1c(OC(C)=O)ccc2c1c1c(n2C)C(=O)c2ccccc2C1=O | 8.38 µM (inactive) | 24.8 | 28.8 µM (inactive) | 27.2 µM (inactive) | 22.4 µM (inactive) | 34.3 µM (inactive) | 14.6 µM (inactive) | 17.3 µM (inactive) | 39.6 µM (inactive) |  | 25.5 µM (inactive) | 46.8 µM (inactive) | 17.9 µM (inactive) | 19 µM (inactive) | 23.9 µM (inactive) | 18.3 µM (inactive) | 31.3 µM (inactive) | 32.1 µM (inactive)
